Results: publication PMC9222373 (2022)

System: Apt-5 (unlabelled) (DNA, aptamer) AGCAGCACAGAGGTCAGATGGGATGTGAGGTGGCTCTCGTATCTATAGATTTTGGCGAGACCTATGCGTGCTACCGTGAA
Experiment: AuNP aggregation colorimetry
Settings: NaCl added after incubation (75 mM optimised); 37 °C, 1 h; 10 ng/mL toxin; 200 nM aptamer stock; insignificant colour change

Row | SMILES | binding
1 | CCCC[C@@H](C)[C@@H](OC(=O)C[C@@H](CC(=O)O)C(=O)O)[C@H](C[C@@H](C)C[C@H](O)CCCC[C@@H](O)C[C@H](O)[C@H](C)N)OC(=O)C[C@@H](CC(=O)O)C(=O)O | no
2 | C[C@@H]1Cc2c(Cl)cc(C(=O)N[C@@H](Cc3ccccc3)C(=O)O)c(O)c2C(=O)O1 | no
3 | C[C@H]1CCCC(=O)CCC/C=C/c2cc(O)cc(O)c2C(=O)O1 | no
